Article PMC7377239, “Cardiovascular Effects of Polychlorinated Biphenyls and Their Major Metabolites” (Environmental Health Perspectives, 2020)
Counter-ions that a name gives are not always drawn.

Test system: iPSC-CMs, iPSC-ECs and HUVECs phenotypes
Assay: ToxPi 2.0 integration of POD values and physicochemical descriptors
Parameters: species or system human
Settings: ToxPi-scaled (0-1) score; for huvec.cyto.24hr / huvec.mito.24hr / huvec.mitoint.24hr / huvec.nma.24hr / huvec.tc.24hr / huvec.mtl.18hr / huvec.tlps.18hr / huvec.tta.18hr / huvec.ttl.18hr: HUVECs; for huvec.mtl.18hr / huvec.tlps.18hr / huvec.tta.18hr / huvec.ttl.18hr / endo.mtl.18hr / endo.tlps.18hr / endo.tta.18hr / endo.ttl.18hr: tube formation; for cm.amp.avg.90min / cm.amp.cv.90min / cm.bpm.90min / cm.cam.90min / cm.decay.rise.90min / cm.mii.90min / cm.mito.90min / cm.spacing.cv.90min / cm.tc.90min / cm.amp.avg.24hrs / cm.amp.cv.24hrs / cm.bpm.24hrs / cm.cam.24hrs / cm.decay.rise.24hrs / cm.mii.24hrs / cm.mito.24hrs / cm.spacing.cv.24hrs / cm.tc.24hrs: iPSC cardiomyocytes; for endo.cyto.24hr / endo.mito.24hr / endo.mitoint.24hr / endo.nma.24hr / endo.tc.24hr / endo.mtl.18hr / endo.tlps.18hr / endo.tta.18hr / endo.ttl.18hr: iPSC endothelial cells
Source text: Phenotypic responses were quantitatively assessed using concentration–response modeling as detailed elsewhere ([Sirenko et al. 2017]). Briefly, phenotypic readouts were normalized to vehicle controls and fit to a four-parameter logistic model in R studio software (version 3.1.1; R Development Core Team). Following EPA guidance on dose–response modeling, a cutoff of one standard deviation across means of vehicle control (i.e., 0.5% vol/vol DMSO in cell culture media) wells was applied to determine the point-of-departure (POD) values ([U.S. EPA 2012]). In the absence of a concentration–response, the highest tested concentration (i.e., 100μM ) was assigned as “no observable adverse effect level.” The concentration–response assessment R script, as well as templates for vehicle and concentration–response data, are available as a supplement to Sirenko et al. ([2017]). The ability of physicochemical properties to predict differences in PODs were evaluated by multiregression and mixed-effects modeling using R.
POD values were then integrated using ToxPi 2.0 ([Marvel et al. 2018]) software. In ToxPi, each slice is representative of cell type– and time-point–specific phenotypes. The area of each slice is proportional to the relative value (e.g., bioactivity or physicochemical descriptor value) of the chemical within the data set. ToxPi scores were used to rank PCBs and their metabolites according to their overall bioactivity and to determine variability in total observable biological responses and chemical characteristics for each major metabolite class and chlorination status (mono-, hexa-chlorinated). Additional visualizations such as dumbbell and principal components analysis plots were generated in R Studio (version 1.1.456; R version 3.5.1; R Development Core Team) using the ggplot2 package.

## Clc1ccc(Cl)c(-c2cc(Cl)ccc2Cl)c1 [PCB 52, 2,2′,5,5′-tetrachlorobiphenyl]
  huvec.cyto.24hr: 0.5178
  huvec.mito.24hr: 0.613
  huvec.mitoint.24hr: 0.5572
  huvec.nma.24hr: 0.3829
  huvec.tc.24hr: 0.5178
  huvec.mtl.18hr: 0
  huvec.tlps.18hr: 0
  huvec.tta.18hr: 0
  huvec.ttl.18hr: 0
  cm.amp.avg.90min: 0.5597
  cm.amp.cv.90min: 0.1687
  cm.bpm.90min: 0.3203
  cm.cam.90min: 0.422
  cm.decay.rise.90min: 0.1841
  cm.mii.90min: 0.8432
  cm.mito.90min: 0.3815
  cm.spacing.cv.90min: 0.1566
  cm.tc.90min: 0.3874
  cm.amp.avg.24hrs: 0.3455
  cm.amp.cv.24hrs: 0.4979
  cm.bpm.24hrs: 0.3481
  cm.cam.24hrs: 0.3478
  cm.decay.rise.24hrs: 0.2921
  cm.mii.24hrs: 0.2822
  cm.mito.24hrs: 0.5634
  cm.spacing.cv.24hrs: 0.2305
  cm.tc.24hrs: 0.578
  endo.cyto.24hr: 0
  endo.mito.24hr: 0
  endo.mitoint.24hr: 0
  endo.nma.24hr: 0
  endo.tc.24hr: 0
  endo.mtl.18hr: 0.02365
  endo.tlps.18hr: 0
  endo.tta.18hr: 0
  endo.ttl.18hr: 0

## Oc1ccc(-c2ccc(Cl)cc2)cc1 [4'-OH-PCB 3]
  huvec.cyto.24hr: 0.275
  huvec.mito.24hr: 0.3852
  huvec.mitoint.24hr: 0.4333
  huvec.nma.24hr: 0.3408
  huvec.tc.24hr: 0.275
  huvec.mtl.18hr: 0.9876
  huvec.tlps.18hr: 1
  huvec.tta.18hr: 0.5814
  huvec.ttl.18hr: 0.4466
  cm.amp.avg.90min: 0.5917
  cm.amp.cv.90min: 0.3333
  cm.bpm.90min: 0.8225
  cm.cam.90min: 0.8629
  cm.decay.rise.90min: 0.5699
  cm.mii.90min: 0.6837
  cm.mito.90min: 0.8821
  cm.spacing.cv.90min: 0.08302
  cm.tc.90min: 0.896
  cm.amp.avg.24hrs: 1
  cm.amp.cv.24hrs: 0.8417
  cm.bpm.24hrs: 0.3262
  cm.cam.24hrs: 0.1519
  cm.decay.rise.24hrs: 0.2382
  cm.mii.24hrs: 0.4953
  cm.mito.24hrs: 0.213
  cm.spacing.cv.24hrs: 0.1936
  cm.tc.24hrs: 0.2201
  endo.cyto.24hr: 0.1551
  endo.mito.24hr: 0.1551
  endo.mitoint.24hr: 0
  endo.nma.24hr: 0
  endo.tc.24hr: 0.1152
  endo.mtl.18hr: 0.4612
  endo.tlps.18hr: 1
  endo.tta.18hr: 0.4055
  endo.ttl.18hr: 0.4146

## O=S(=O)(O)Oc1cc(Cl)c(-c2cc(Cl)ccc2Cl)cc1Cl [4-PCB 52 sulfate]
  huvec.cyto.24hr: 0.3025
  huvec.mito.24hr: 0.4046
  huvec.mitoint.24hr: 0.09717
  huvec.nma.24hr: 0.1382
  huvec.tc.24hr: 0.3025
  huvec.mtl.18hr: 0.4309
  huvec.tlps.18hr: 0.4338
  huvec.tta.18hr: 0
  huvec.ttl.18hr: 0
  cm.amp.avg.90min: 0.5595
  cm.amp.cv.90min: 0.2844
  cm.bpm.90min: 0.3731
  cm.cam.90min: 0.9201
  cm.decay.rise.90min: 0.4741
  cm.mii.90min: 0.3306
  cm.mito.90min: 0.9162
  cm.spacing.cv.90min: 0.09545
  cm.tc.90min: 0.9127
  cm.amp.avg.24hrs: 0
  cm.amp.cv.24hrs: 0.4327
  cm.bpm.24hrs: 0.3667
  cm.cam.24hrs: 0.3358
  cm.decay.rise.24hrs: 0.4673
  cm.mii.24hrs: 0.2133
  cm.mito.24hrs: 0.5368
  cm.spacing.cv.24hrs: 0.207
  cm.tc.24hrs: 0.5686
  endo.cyto.24hr: 0.1547
  endo.mito.24hr: 0.1547
  endo.mitoint.24hr: 0
  endo.nma.24hr: 0
  endo.tc.24hr: 0.1212
  endo.mtl.18hr: 0.2716
  endo.tlps.18hr: 0.4577
  endo.tta.18hr: 0.2209
  endo.ttl.18hr: 0.2158

## Oc1ccccc1-c1ccc(Cl)cc1 [2'-OH-PCB 3]
  huvec.cyto.24hr: 0.3062
  huvec.mito.24hr: 0.3804
  huvec.mitoint.24hr: 0.2116
  huvec.nma.24hr: 0.5273
  huvec.tc.24hr: 0.3062
  huvec.mtl.18hr: 0
  huvec.tlps.18hr: 0.9781
  huvec.tta.18hr: 0
  huvec.ttl.18hr: 0
  cm.amp.avg.90min: 1
  cm.amp.cv.90min: 1
  cm.bpm.90min: 0.6048
  cm.cam.90min: 0.4595
  cm.decay.rise.90min: 0.9737
  cm.mii.90min: 0.8925
  cm.mito.90min: 0.3599
  cm.spacing.cv.90min: 0.3323
  cm.tc.90min: 0.4365
  cm.amp.avg.24hrs: 0.2407
  cm.amp.cv.24hrs: 0.05985
  cm.bpm.24hrs: 0.1658
  cm.cam.24hrs: 0.1217
  cm.decay.rise.24hrs: 0.6737
  cm.mii.24hrs: 0.7202
  cm.mito.24hrs: 0.2606
  cm.spacing.cv.24hrs: 0.1842
  cm.tc.24hrs: 0.2359
  endo.cyto.24hr: 0.1423
  endo.mito.24hr: 0.1423
  endo.mitoint.24hr: 0
  endo.nma.24hr: 0.7069
  endo.tc.24hr: 0.06754
  endo.mtl.18hr: 0.2097
  endo.tlps.18hr: 0.3809
  endo.tta.18hr: 0.1099
  endo.ttl.18hr: 0.1352

## O=S(=O)(O)Oc1ccc(-c2ccc(Cl)cc2)cc1 [4'-PCB 3 sulfate]
  huvec.cyto.24hr: 0
  huvec.mito.24hr: 0
  huvec.mitoint.24hr: 0
  huvec.nma.24hr: 0
  huvec.tc.24hr: 0
  huvec.mtl.18hr: 0.4903
  huvec.tlps.18hr: 0
  huvec.tta.18hr: 0.272
  huvec.ttl.18hr: 0
  cm.amp.avg.90min: 0.6628
  cm.amp.cv.90min: 0.2569
  cm.bpm.90min: 0.1909
  cm.cam.90min: 0
  cm.decay.rise.90min: 0.4625
  cm.mii.90min: 0
  cm.mito.90min: 0
  cm.spacing.cv.90min: 0.1039
  cm.tc.90min: 0
  cm.amp.avg.24hrs: 0
  cm.amp.cv.24hrs: 0
  cm.bpm.24hrs: 0
  cm.cam.24hrs: 0
  cm.decay.rise.24hrs: 0
  cm.mii.24hrs: 0.1652
  cm.mito.24hrs: 0
  cm.spacing.cv.24hrs: 0
  cm.tc.24hrs: 0
  endo.cyto.24hr: 0
  endo.mito.24hr: 0
  endo.mitoint.24hr: 0
  endo.nma.24hr: 0
  endo.tc.24hr: 0
  endo.mtl.18hr: 0.3281
  endo.tlps.18hr: 0.3444
  endo.tta.18hr: 0.1625
  endo.ttl.18hr: 0.2037

## Oc1cccc(-c2ccc(Cl)cc2)c1 [3'-OH-PCB 3]
  huvec.cyto.24hr: 0.4672
  huvec.mito.24hr: 0.5506
  huvec.mitoint.24hr: 0.1749
  huvec.nma.24hr: 1
  huvec.tc.24hr: 0.4672
  huvec.mtl.18hr: 1
  huvec.tlps.18hr: 0.8699
  huvec.tta.18hr: 0.6576
  huvec.ttl.18hr: 0.5155
  cm.amp.avg.90min: 0.6872
  cm.amp.cv.90min: 0.2705
  cm.bpm.90min: 0.8835
  cm.cam.90min: 0.7562
  cm.decay.rise.90min: 0.4777
  cm.mii.90min: 0.3912
  cm.mito.90min: 0.7743
  cm.spacing.cv.90min: 0.07935
  cm.tc.90min: 0.7836
  cm.amp.avg.24hrs: 0.4464
  cm.amp.cv.24hrs: 0.3812
  cm.bpm.24hrs: 0.4553
  cm.cam.24hrs: 0.2634
  cm.decay.rise.24hrs: 0.8154
  cm.mii.24hrs: 0.3889
  cm.mito.24hrs: 0.4239
  cm.spacing.cv.24hrs: 0.8008
  cm.tc.24hrs: 0.4277
  endo.cyto.24hr: 0.1365
  endo.mito.24hr: 0.1365
  endo.mitoint.24hr: 0
  endo.nma.24hr: 0.4106
  endo.tc.24hr: 0.1112
  endo.mtl.18hr: 0.5876
  endo.tlps.18hr: 0.7333
  endo.tta.18hr: 0.4844
  endo.ttl.18hr: 0.4865

## COc1cc(Cl)c(-c2cc(Cl)ccc2Cl)cc1Cl [4-OMe-PCB 52, 4-methoxy-2,2′,5,5′-tetrachlorobiphenyl]
  huvec.cyto.24hr: 0.503
  huvec.mito.24hr: 0.6182
  huvec.mitoint.24hr: 0.7163
  huvec.nma.24hr: 0.4778
  huvec.tc.24hr: 0.503
  huvec.mtl.18hr: 0.3949
  huvec.tlps.18hr: 0.3694
  huvec.tta.18hr: 0
  huvec.ttl.18hr: 0
  cm.amp.avg.90min: 0.7151
  cm.amp.cv.90min: 0.1921
  cm.bpm.90min: 0.6456
  cm.cam.90min: 0.5317
  cm.decay.rise.90min: 0.5533
  cm.mii.90min: 0.2088
  cm.mito.90min: 0.6868
  cm.spacing.cv.90min: 0.09243
  cm.tc.90min: 0.4554
  cm.amp.avg.24hrs: 0
  cm.amp.cv.24hrs: 0.07106
  cm.bpm.24hrs: 0.2075
  cm.cam.24hrs: 0.1487
  cm.decay.rise.24hrs: 0.2631
  cm.mii.24hrs: 0.763
  cm.mito.24hrs: 0.2211
  cm.spacing.cv.24hrs: 0.2504
  cm.tc.24hrs: 0.2416
  endo.cyto.24hr: 0.1456
  endo.mito.24hr: 0.1456
  endo.mitoint.24hr: 0
  endo.nma.24hr: 0.1018
  endo.tc.24hr: 0.1602
  endo.mtl.18hr: 0.06827
  endo.tlps.18hr: 0.09286
  endo.tta.18hr: 0.06026
  endo.ttl.18hr: 0.05573
